Test results published in patent publication US20250375464A1, “FORMULATIONS FOR MODULATING MYC EXPRESSION” (FLAGSHIP PIONEERING INNOVATIONS V, INC., priority 2022, published 2025).

Assays:
Hep 3B tumors = assay: Hep 3B subcutaneous xenograft in nude mice, tumor volume
Description: In this example, 0.6 mg/ml LNP (MC3) formulated effector (dCas9-MQ1/GD-17) was delivered to tumor sites by intratumoral injection on day 1 and day 7 (20 μl/mice) in the test group animals. The control group mice were injected at the tumor site either with PBS or with 0.6 mg/ml LNP (MC3) control effector dCas9/GD-SafeHarbor (20 μl/mice). Each control and test group consisted of 6 animals having SubQ Hep3B Xenografts (250 mm^3). Changes in tumor volume for each group was measured every 3 days for 15 days. At the end of 15 days, the changes in mean tumor volume were measured using Paired T-test and was plotted.
(§1) Hep 3B tumor cells were implanted into the left flank of thirty female nude mice to induce tumor. Changes in tumor volume was measured and the treatment initiated when mean tumor volume reached approximately 100-150 mm^3. Mice were divided into treatment and control groups so that mean tumor volume in each group were approximately equal. Control groups were injected either with PBS or with MYCi975, a small molecule comparator. The mice in each group were injected intratumorally with PBS (every 5 days for 3 doses then switched to IV for 2 doses), intravenously with ZF9-MQ1 (every 5 days at 3 mg/kg) or intraperitoneally with MYCi975 (once daily for 5 days/week). All animals were weighed daily and assessed visually. Changes in tumor volume for each group were measured 3 times per week. Over the course of 22 days, the changes in body weight from baseline and the mean tumor volume were measured using Paired T-test and was plotted (FIG. 14A-B).
Hep 3B tumor cells were implanted into the left flank of seventy-two female nude mice to induce tumor. Changes in tumor volume was measured and the treatment initiated when mean tumor volume reached approximately 200 mm^3. Mice were divided into nine treatment groups (8 mice each) so that mean tumor volume in each group was approximately equal. The mice in each group were injected intravenously with PBS (every 5 days for 3 doses then every 3 days for 3 doses), ZF9-MQ1 at 1 mg/kg and 3 mg/kg (every 5 days for 3 doses then every 3 days for 3 doses), co-formulated ZF9-MQ1+ZF3-KRAB at 1 mg/kg and 3 mg/kg (every 5 days for 3 doses then every 3 days for 3 doses), negative control mRNA at 1 mg/kg and 3 mg/kg (every 5 days for 3 doses then every 3 days for 3 doses), intraperitoneal with MYCi975 at 100 mg/kg (once daily for 5 days per week) or intraperitoneal with cisplatin at 1 mg/kg (once every 15 days). All animals were weighed daily and assessed visually. Changes in tumor volume were measured 3 times per week.
Disease was induced in female nude mice by the implantation of Hep 3B tumor cells into the left flank. […] All animals were weighed daily and assessed visually. Tumors sizes were measured 3 times per week. […]

[1] = Overall animal (body) weight in the tumor studies (FIGS. 14-16, 20); type: in vivo, mice; details: doses as in the respective tumor study
Hep3B-luc tumors = assay: Orthotopic Hep3B-luc model, tumor bioluminescence; type: in vivo, mice (Fox Chase CB17 SCID; nude); details: nude mice
Description: Tumor progression was measured by luminescence. […] It is unclear whether this is related to treatment. […] Statistically significant differences were observed between treatment groups.
Sorafenib was given orally (PO) daily (QD) as a standard of care control. Tumor progression was measured by luminescence. No animal deaths were noted.

HEPG2 tumors = assay: HepG2 subcutaneous xenograft in nude mice; type: in vivo; set-up: dose or concentration left out as unconfirmed
SKHEP1 tumors = assay: SKHEP1 subcutaneous xenograft in nude mice; type: in vivo; details: 50 mg/kg orally daily
Description: Animals were dosed every 5 days.
Sorafenib was given daily at 50 mg/kg.

[2] = Body weight and tolerability of tumor bearing mice
Description: as §1
All animals were weighed daily and assessed visually.

Structure (SMILES)	increase in tumor volume (Hep 3B tumors; Example 44, 25 mg/kg alone, 12 days)	overall animal (body) weight, result in words [1]	tumor luminescence relative to PBS controls (Hep3B-luc tumors; Example 45, 50 mg/kg orally daily)	tumor luminescence relative to PBS controls (Hep3B-luc tumors; Example 46, 50 mg/kg PO QD)	tumor growth (HEPG2 tumors)	tumor growth (SKHEP1 tumors)	weight gain ([2]; SK-HEP-1 subcutaneous, 50 mg/kg orally daily)	body weight ([2]; orthotopic Hep3B-luc, SCID mice, ZF9-MQ1+ZF3-KRAB 1.5-6 mg/kg every 5 days, sorafenib 50 mg/kg daily orally)	tumor growth relative to PBS controls (Hep 3B tumors; 50 mg/kg orally every day (Example 35))	tumor growth relative to PBS controls (Hep 3B tumors; Example 40, 50 mg/kg orally daily)	tumor growth relative to PBS control (Hep 3B tumors; Example 43, 25 mg/kg QD alone, 16 days)
Cc1sc2c(c1C)C(c1ccc(Cl)cc1)=N[C@@H](CC(=O)OC(C)(C)C)c1nnc(C)n1-2 [JQ1]	did not significantly inhibit	–	–	–	–	–	–	–	–	–	–
CNC(=O)c1cc(Oc2ccc(NC(=O)Nc3ccc(Cl)c(C(F)(F)F)c3)cc2)ccn1 [sorafenib]	–	initial drop in body weight with a later gain in overall body weight	statistically significant reduction in tumor luminescence	statistically significant reduction in tumor luminescence	statistically significant reduction in tumor growth	statistically significant reduction in tumor growth	Statistically significant reductions in weight gain	initial drop in body weight	statistically significant reduction in tumor growth	statistically significant reduction in tumor growth	did not significantly reduce tumor growth
